In article PMC11230492, “Targeting Unique Ligand Binding Domain Structural Features Downregulates DKK1 in Y537S ESR1 Mutant Breast Cancer Cells” (Research Square, 2024):

Biological target: T1, estrogen receptor alpha (ERα) ligand binding domain (Homo sapiens, UniProt P03372, C381S/C417S/C530S/Y537S)
T1 construct: gene ESR1
T1 sequence (P03372 300-550 C381S/C417S/C530S/Y537S): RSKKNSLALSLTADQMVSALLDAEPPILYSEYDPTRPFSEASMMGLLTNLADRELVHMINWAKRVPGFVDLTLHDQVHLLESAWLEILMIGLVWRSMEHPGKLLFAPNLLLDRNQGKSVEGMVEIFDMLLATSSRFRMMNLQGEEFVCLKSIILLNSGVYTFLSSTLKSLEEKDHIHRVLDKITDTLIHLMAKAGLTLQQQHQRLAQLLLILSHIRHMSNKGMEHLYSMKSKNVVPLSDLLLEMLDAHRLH
Assay: X-ray co-crystal structure, […] Å

O=C(c1ccccc1)N1C(c2ccc(OCC3CCN(CCCF)C3)cc2)c2ccc(O)cc2CC12CC2 (stereo not shown) [T6I-29]
X-ray co-crystal structure, 2.20 Å: we solved an x-ray co-crystal structure of T6I-29 in complex with Y537S ERα LBD
